These results are taken from patent publication US20070254907A1, “COMPOSITIONS AND METHODS FOR CONTROLLING INFESTATION” (HATCHTECH PTY LTD, priority 2003, published 2007).

In test [1] the test system is proteases in egg shell washings (ESW) of lice eggs. In words: Gelatin substrate SDS-PAGE of lice egg shell washings (ESW) incubated with protease inhibitors. The test is classed as biochemical, Pediculus humanus humanus. On the procedure:
Within 12 hours of hatching 50 body lice eggs (Pediculus humanus humanus) were removed from the hair and placed in a 1 mL eppendorf tube. 20 μL of distilled water was added to the unhatched eggs and the preparation incubated for 30 minutes at 32° C. The 20 μL was recovered, freeze dried and stored at −70° C. This sample was referred to as sample 1. A number of other samples were also collected as described. Sample 2 was collected by removing the unhatched louse eggs from four hairs that were approximately 3 cm long, cutting the hair into 0.5 cm lengths, and placing them into a microfuge tube containing 20 μl of distilled water and incubating at 32° C. for 30 minutes. Sample 3 was collected as for sample 2, but the hair was placed in a tube containing 10 mL of 1% sodium hypochlorite for 1 minute followed by five 1 minute washes in 25 mL of distilled water to remove the sodium hypochlorite before being incubated in a microfuge tube containing 20 μl of distilled water and incubated as for Sample 2. Sample 4 was collected from unhatched eggs which were removed from the hair and washed with 1% sodium hypochlorite and incubated in 20 μl of distilled water in the same manner as the hair in Sample 3. Finally, Sample 5 was collected from eggs that were within 24 hrs of hatching which were washed with 1% sodium hypochlorite, then returned to the incubator at 32° C. until they hatched, the empty egg shells collected 0-2 hrs after egg-hatching, placed in a 1 mL microfuge tube containing 20 μl of distilled water and incubated as for Samples 1-4. For all samples 1-5 the 20 μl of fluid was recovered, freeze-dried and stored at −70° C. The washings recovered from these freshly hatched egg shells are referred to as egg-shell-washings (ESWs). In order to look for the presence of proteases present in these different samples, the freeze-dried samples were resuspended in 15 μL of non-reducing SDS sample buffer, centrifuged at 10,000 g for 2 minutes and the entire 15 μL loaded on to 10% gelatine substrate SDS-PAGE gels. Gels were run at 4° C. for 10 minutes at 10 mA followed by a further 25 minutes at 15 mA per gel. They were then incubated for 2×20 minutes in a 2.5% Triton-X 100 solution followed by a three hour incubation in 0.1M Tris/HCl containing 1 mM CaCl2 pH 8.0. Activity was detected as clear areas on the gel the result of protease activity degrading the gelatine within the gel.
Protease activity in the ESWs from louse eggs was also examined using two-dimensional gel electrophoresis. It was necessary to collect large numbers of freshly hatched egg shells. Following egglaying onto pieces of cloth, adult female lice were removed and the cloth with the eggs washed with 1% sodium hypochlorite as for collection of ESWs. The eggs were then returned to the incubator and permitted to hatch. Typically 100 to 500 hatched egg shells were collected (0-2 hours post hatching), placed in a microfuge tube containing 200 μl of distilled water, incubated and sample treated as described above. For analysis, ESWs were resuspended in rehydration buffer (8 M Urea, 2% 3-[(3-cholamidopropyl) dimethylammonio]-1-propanesulfonate 2% Immobilised pH gradient buffer 3-10 (Amersham Phamacia Biotech, Uppsala, Sweden)) and used to rehydrate 7 cm Immobiline Dry strips pH 3-10 (Amersham Bioscience) overnight. Strips were transferred to the Multiphor II (Pharmacia, Sweden) apparatus, electrophoresed in the first dimension at 200 V for 1 min, increasing to 3,500 V over the next 90 min followed by 65 min at 3,500 V, equilibrated (6 M urea, 30% glycerol, 50 mM Tris pH 8.8 and 2% SDS) and then run on a 10% SDS-PAGE gel containing 0.1% gelatin for the second dimension. The gel was then run and developed as previously described.
10% SDS-PAGE gelatine substrate gels were loaded with freeze dried egg shell washings from 100 lice eggs that had been resuspended in 50 μL of non-reducing sample buffer with samples run at 10 μL per lane. […]

The test system of test [2] is H. contortus eggs. Nature of the test: Egg hatching in Haemonchus contortus. The format is in vivo. How it is done: In an attempt to improve control of H. contortus the effects of the compound 5,5′-dimethyl-2,2′-dipyridyl was examined on H. contortus eggs. Eggs were recovered from the faeces of infected sheep using a standard sucrose floatation method. The eggs were corrected to a density of approximately 2,500 eggs per mL and were then exposed to varying concentrations of compound and incubated for 48 hours at 25° C. The eggs were then examined to determine the ovicidal efficacy of the compound in comparison to untreated control and a solvent only control.
In addition, the ovicidal efficacy of the compound 2-acetyl-1-tetralone was examined against H. contortus (FIG. 10). The same protocol was used as described for 5,5′-dimethyl-2,2′-dipyridyl.

For test [3], the system named is house dust mite Dermatophagoides spp. In words: House dust mite counts on treated filter paper. The format is in vivo. To be noted: over the 2 week period, 25° C., 75% RH. On the procedure:
A filter paper (90 mm diameter) was taken and placed in a Petri dish of the same dimensions. The filter paper was then wetted throughout with the test compound, using a small air pump sprayer. The wetted filter paper was then allowed to dry in free flowing air. 200 mg dust mite medium, containing roughly 500 mites/g, was placed on the filter paper and the number of mites counted under a microscope. The arena was then left for 2 weeks on an incubator at 25° C. and 75% RH. After 2 weeks the number of mites in the arena was counted for a second time. This experiment was repeated 3 times with the test compound and a further 3 times using water as a control.

Test [4] has as its system head lice eggs. In words: Head lice egg hatching with formulated compound. The test is classed as in vivo. As to conditions: 20 mM formulation. On the procedure:
Gravid female lice were permitted to lay eggs. The eggs were counted, inspected under a light microscope and all eggs that appeared undamaged were allocated to one of two treatment groups. One group was exposed to 5′-dimethyl-2,2′-dipyridyl in a formulation, while the second group was exposed to the formulation only. The protocol was as follows:
Treatments: 5'-dimethyl-2,2'dipyridyl (20mM) n=10
Vehicle control only n=10
Exposure time: 10 minutes
Wash time: 1 minute @˜37° C.
Incubation: All eggs were placed at 31° C. in a humid incubator and monitored for signs of development specifically of the eye and subsequent hatching, see Table 21.

Consider `c1cnc2c(c1)ccc1cccnc12` [1,10-phenanthroline, reference compound], for which the “protease activity of ESW, two dimensional gel electrophoresis” value in test [1] (gel incubated with 10 mM inhibitor) was “general reduction in protease activity in the 25-30 kDa region and a clear reduction in the proteases present around the 50 kDa region and above 75 kDa”. In test [1] (gel strips incubated with inhibitor: PMSF 5 mM, 1,10-phenanthroline 10 mM, EDTA 10 mM, pepstatin 5 μM, E-64 10 μM), the “protease activity of ESW on gelatin SDS-PAGE compared to untreated controls” value is listed as “reduction in protease activity”.
Regarding `Cc1ccc(-c2ccc(C)cn2)nc1` [5,5′-dimethyl-2,2′-dipyridyl], the “ovicidal efficacy on H. contortus eggs” value in test [2] (180 and 18 ug/mL (1 and 0.1 mM), 48 hours at 25° C. (FIG. 8)) is “potently ovicidal”. The “effectiveness at inhibiting H. contortus egg hatching compared to ivermectin” value in test [2] (FIG. 8 versus FIG. 9) is given as ~10 ×. Also, in test [3], the “mite populations on the treated filter papers” value was “small decline”. The “egg hatching in head lice” value in test [4] (10 minutes, 1 minute wash) is “significantly suppress egg hatching”. Further, the “eggs that failed to hatch (did not develop)” value in test [4] (n=10 eggs) is on record as 80%.
